{
  "source": "patent US20250388534A1",
  "about": "(SHENZHEN SHINEHIGH INNOVATION CO., LTD., priority 2022, published 2025)",
  "key": {"[1]": {"tested_on": "melanoma cells (B16)", "assay": "Cytotoxicity test by melanoma cells (B16)", "assay_type": "cell-based", "conditions": "PC 10% DMSO"}, "[2]": {"assay": "ABTS+⋅ scavenging rate determination", "conditions": "50 to 250 μg/mL, FIG. 7", "method": "(§1) The DPPH⋅ radical scavenging rate and ABTS^+⋅ scavenging rate are measured, and the test methods are as follows.\nABTS^+⋅ scavenging rate determination: ABTS solution (7 mmol/L) and potassium persulfate solution (2.45 mmol/L) are mixed in a 1:1 (v/v) ratio and shaken to prepare the ABTS stock solution, which is allowed to sit at room temperature for 12 h to 16 h (protected from light). Then, the ABTS stock solution is diluted with a phosphate buffer solution of 10 mmol/L and pH 7.4, and the absorbance A0 of the diluted solution is measured at a wavelength of 734 nm, aiming to reach 0.70±0.002. For each sample solution at different mass concentrations, 50 μL is taken and mixed with 750 μL of the ABTS assay solution. The mixture is thoroughly mixed and allowed to react for 6 min. The absorbance is measured at a wavelength of 734 nm as A1, with an absolute ethanol solution used in place of the ABTS solution to measure the absorbance as A2. VC is used as a positive control during the test, and the calculation of the ABTS^+⋅ scavenging rate follows Formula (2)."}, "[3]": {"assay": "DPPH⋅ radical scavenging rate determination", "conditions": "50 to 250 μg/mL, FIG. 6", "method": "as §1\nDPPH⋅ radical scavenging rate determination: For each sample solution at different mass concentrations, 0.2 mL is taken and mixed with 0.8 mL of a 60 μmol/L DPPH⋅ solution (prepared with absolute ethanol). The mixture is then reacted for 30 min in the dark, and the absorbance is measured at a wavelength of 517 nm as A1. The absorbance using 70% ethanol solution instead of the sample is measured as A0, and the absorbance using absolute ethanol instead of the DPPH⋅ solution is measured as A2. VC is used as a positive control during the test. The calculation of the DPPH⋅ radical scavenging rate is shown in Formula (2): […]"}, "[4]": {"assay": "Thermogravimetric analysis of thermal decomposition behavior", "assay_type": "physicochemical", "conditions": "heating rate 5.0 K/min, FIG. 2"}, "[5]": {"tested_on": "MIP-2", "assay": "TPA-induced mouse ear edema model, MIP-2 in ear tissue by ELISA", "assay_type": "in vivo, mice", "conditions": "salt 0.8 mg/ear, mandelic acid 0.39 mg/ear", "method": "(§2) TPA-induced mouse ear edema model and administration method. Male KM mice of SPF grade weighing 20 g to 23 g are acclimatized at a temperature of 25° C. and a relative humidity of 40% to 70% for 24 h (12 h each under alternating light and dark conditions), and given sufficient food and water to allow them to eat freely. The mice are randomly divided into 6 groups: blank group (BC), negative control group (NC), positive control group (PC), and 2 treatment groups. […] After 6 h, the mice are immediately killed by breaking their necks. The ear tissues are ground in liquid nitrogen, then ground tissues are transferred to a 4 mL EP tube, and 1 mL of T-PER tissue protein extraction reagent is added. The solution is mixed thoroughly for about 30 min, and then subjected to intermittent sonication for 10 s at 20 Hz, followed by 2 min of ultrasonic treatment to fully lyse the ear tissues. The mixture is centrifuged at 4° C. and 13000 r/min for 20 min. Supernatants are collected to determine the levels of the inflammatory factors IL-1α, TNF-α, and MIP-2 in ear tissues using the ELISA method."}, "[6]": {"tested_on": "chick embryo chorioallantoic membrane (CAM)", "assay": "Eye irritation/corrosion chick embryo chorioallantoic membrane assay (irritation score IS)", "method": "The test method is as follows.\nPreparation of CAM: The viability of 9-day-old chick embryos is checked using fertilized eggs. The shell of the air cell is removed using dental serrated forceps to expose the white egg membrane, with care taken to avoid damaging the integrity of the membrane. A drop of 0.9% sodium chloride solution is added with a pipette to moisten the membrane. The inner membrane is carefully removed with forceps, ensuring that the vascular membrane is not damaged. At this point, the structure of the vascular system is observed again, and a judgment is made regarding its integrity and suitability for the test.\nPre-test: Two chick embryos are taken to assess the reactivity of this batch, with the duration of action limited to within 5 min. […]\nReaction evaluation method: 0.3 mL or 0.3 g of the test substance is applied to the CAM, ensuring that at least 50% of the CAM surface is covered by the test substance. The reaction of the CAM is observed, and the time at which each type of toxicity effect appears within 5 min of application is recorded.\nThe irritation score (IS) is a test conducted using the reaction time method, with the irritation score (IS) calculated using Formula (3), and the results are retained to two decimal places: […]\nsecH (bleeding time) refers to the average time observed for bleeding to begin on the CAM membrane, measured in seconds(s). secL (vascular lysis time) refers to the average time observed for vascular lysis to begin on the CAM membrane, measured in seconds(s). secC (clotting time) refers to the average time observed for clotting to begin on the CAM membrane, measured in seconds(s)."}, "[7]": {"tested_on": "TNF-α", "assay": "TPA-induced mouse ear edema model, TNF-α in ear tissue by ELISA", "assay_type": "in vivo, mice", "conditions": "salt 0.8 mg/ear, mandelic acid 0.39 mg/ear", "method": "as §2"}, "[8]": {"tested_on": "IL-1α", "assay": "TPA-induced mouse ear edema model, IL-1α in ear tissue by ELISA", "assay_type": "in vivo, mice", "conditions": "salt 0.8 mg/ear, mandelic acid 0.39 mg/ear", "method": "as §2"}, "[9]": {"tested_on": "melanin synthesis in B16 cells", "assay": "Inhibition of melanin synthesis in B16 cells (T/SHRH027-2019)", "assay_type": "cell-based", "method": "(§3) And the cellular melanin content, tyrosinase activity, and tyrosinase inhibition rate are tested within a safe concentration."}, "[10]": {"tested_on": "tyrosinase", "assay": "In vitro tyrosinase inhibition assay (T-SHRH015-2018)", "assay_type": "biochemical", "conditions": "for Cellular tyrosinase activity inhibition (%): in vitro tyrosinase inhibition assay", "method": "as §3"}, "[11]": {"target": "T1, cellular tyrosinase (Mus musculus, UniProt P11344)", "T1 construct": "endogenous in cells; host or cells: B16 melanoma cells", "T1 sequence (P11344 19-533)": "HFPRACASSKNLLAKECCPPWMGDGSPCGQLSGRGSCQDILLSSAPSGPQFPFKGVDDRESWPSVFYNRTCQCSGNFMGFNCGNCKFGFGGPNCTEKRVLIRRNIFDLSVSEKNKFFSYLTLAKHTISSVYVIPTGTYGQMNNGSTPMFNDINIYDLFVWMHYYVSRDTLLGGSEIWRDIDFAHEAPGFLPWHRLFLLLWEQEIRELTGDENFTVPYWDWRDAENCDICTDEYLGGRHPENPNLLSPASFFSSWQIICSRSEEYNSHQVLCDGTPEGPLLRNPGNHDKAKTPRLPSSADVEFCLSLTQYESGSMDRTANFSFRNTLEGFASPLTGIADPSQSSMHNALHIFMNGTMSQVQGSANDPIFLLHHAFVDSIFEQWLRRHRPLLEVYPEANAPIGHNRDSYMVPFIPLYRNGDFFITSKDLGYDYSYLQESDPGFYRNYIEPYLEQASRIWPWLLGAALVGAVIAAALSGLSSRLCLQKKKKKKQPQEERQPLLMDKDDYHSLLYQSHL", "assay": "Cellular tyrosinase activity inhibition assay in B16 cells", "assay_type": "cell-based", "method": "as §3"}, "[12]": {"conditions": "mean of R1-R3, mouse ear tissue 6 h after TPA 2.0 μg/ear"}, "[13]": {"conditions": "mouse ear tissue, 6 h after TPA"}, "[14]": {"conditions": "replicate R1, mouse ear tissue 6 h after TPA 2.0 μg/ear"}, "[15]": {"conditions": "replicate R3, mouse ear tissue 6 h after TPA 2.0 μg/ear"}, "[16]": {"conditions": "reaction time method, single chick embryos 1-6, in s"}, "[17]": {"conditions": "0.0006%, 0.0012%, 0.002% (m/V), p<0.05 vs blank control"}},
  "note": "Several values for one entry are separate records, joined by “and”; a condition that tells them apart may be missing. Identical values can stand only once.",
  "data": [
    {"compound": "C[S+](C)[O-]", "note": "[DMSO]", "values": [
      {"measurement": "Cell viability (%)", "setting": "[1]", "value": "40.26% and 39.46%"}
    ]},
    {"compound": "O=C1O[C@H]([C@@H](O)CO)C(O)=C1O", "note": "[VC]", "values": [
      {"measurement": "ABTS+⋅ scavenging effect (ranking)", "setting": "[2]", "value": "best scavenging effect"},
      {"measurement": "DPPH⋅ radical scavenging effect (ranking)", "setting": "[3]", "value": "best scavenging effect"}
    ]},
    {"compound": "O=C(O)C(O)c1ccccc1", "note": "(centres unmarked) [mandelic acid, a-hydroxyphenylacetic acid]", "values": [
      {"measurement": "temperature at which thermal decomposition behavior begins", "setting": "[4]", "value": "~135", "unit": "°C"},
      {"measurement": "ABTS+⋅ scavenging effect (ranking)", "setting": "[2]", "value": "weakest effect"},
      {"measurement": "MIP-2 Concentration", "setting": "[5]; [12]", "value": 50.82, "unit": "µg/mL"},
      {"measurement": "level of MIP-2 compared with the negative control group", "setting": "[5]; [13]", "value": "decrease"},
      {"measurement": "MIP-2 concentration, R1", "setting": "[5]; [14]", "value": 51.32, "unit": "µg/mL"},
      {"measurement": "MIP-2 concentration, R3", "setting": "[5]; [15]", "value": 50.98, "unit": "µg/mL"},
      {"measurement": "DPPH⋅ radical scavenging effect (ranking)", "setting": "[3]", "value": "weakest effect"},
      {"measurement": "irritation classification", "setting": "[6]; 2% aqueous solution of the salt, equivalent molar mandelic acid solution, CAM assay", "value": "mild irritation"},
      {"measurement": "Test result: IS", "setting": "[6]; overall irritation score of 6 chick embryos", "value": "IS = 1.03"},
      {"measurement": "Bleeding severity score", "setting": "[6]; reaction time method, single chick embryos 1-6", "value": 301, "unit": "s"},
      {"measurement": "Coagulation score", "setting": "[6]; [16]", "value": "301 and 290 and 250"},
      {"measurement": "Vascular lysis score", "setting": "[6]; [16]", "value": "260 and 280 and 290 and 301 and 210"},
      {"measurement": "TNF-α Concentration", "setting": "[7]; [12]", "value": 85.98, "unit": "µg/mL"},
      {"measurement": "level of TNF-α compared with the negative control group", "setting": "[7]; [13]", "value": "decrease"},
      {"measurement": "TNF-α concentration, R1", "setting": "[7]; [14]", "value": 85.34, "unit": "µg/mL"},
      {"measurement": "TNF-α concentration, R3", "setting": "[7]; [15]", "value": 88.27, "unit": "µg/mL"},
      {"measurement": "IL-1α Concentration", "setting": "[8]; [12]", "value": 28.51, "unit": "µg/mL"},
      {"measurement": "level of IL-1α compared with the negative control group", "setting": "[8]; [13]", "value": "decrease"},
      {"measurement": "IL-1α concentration, R1", "setting": "[8]; [14]", "value": 28.59, "unit": "µg/mL"},
      {"measurement": "IL-1α concentration, R3", "setting": "[8]; [15]", "value": 29.31, "unit": "µg/mL"}
    ]},
    {"compound": "NC[C@H]1CC[C@H](C(=O)O)CC1", "note": "[tranexamic acid]", "values": [
      {"measurement": "temperature at which thermal decomposition behavior begins", "setting": "[4]", "value": "around 77 °C"}
    ]},
    {"compound": "supramolecular tranexamic acid-citric acid ionic salt [Comparative Example 1]", "values": [
      {"measurement": "Inhibition rate of cell melanin content (%)", "setting": "[9]; 0.0006% m/V", "value": 15.32, "unit": "%"},
      {"measurement": "effect on cell melanin synthesis ability", "setting": "[9]; [17]", "value": "had an inhibitory effect on the cell melanin synthesis ability"},
      {"measurement": "Inhibition rate of cell melanin content (%)", "setting": "[9]; 0.0012% m/V", "value": 18.19, "unit": "%"},
      {"measurement": "Inhibition rate of cell melanin content (%)", "setting": "[9]; 0.0020% m/V", "value": 22.51, "unit": "%"},
      {"measurement": "Cellular tyrosinase activity inhibition (%)", "setting": "[10]; 0.625 % m/V", "value": 5.36, "unit": "%"},
      {"measurement": "Cellular tyrosinase activity inhibition (%)", "setting": "[10]; 1.25 % m/V", "value": 60.49, "unit": "%"},
      {"measurement": "Cellular tyrosinase activity inhibition (%)", "setting": "[10]; 2.50 % m/V", "value": 65.38, "unit": "%"},
      {"measurement": "Cellular tyrosinase activity inhibition (%)", "setting": "[10]; 5 % m/V", "value": 67.57, "unit": "%"},
      {"measurement": "Cellular tyrosinase activity inhibition (%)", "setting": "[10]; 10 % m/V", "value": 69.99, "unit": "%"},
      {"measurement": "inhibition rate on tyrosinase", "setting": "[10]; in vitro, concentrations of 1.25 to 10% (m/V)", "value": "above 60%"},
      {"measurement": "Cellular tyrosinase activity inhibition (%)", "setting": "[11]; 0.0006% m/V", "value": 2.17, "unit": "%"},
      {"measurement": "effect on cellular tyrosinase activity", "setting": "[11]; [17]", "value": "had an inhibitory effect on cellular tyrosinase activity"},
      {"measurement": "Cellular tyrosinase activity inhibition (%)", "setting": "[11]; 0.0012% m/V", "value": 10.05, "unit": "%"},
      {"measurement": "Cellular tyrosinase activity inhibition (%)", "setting": "[11]; 0.0020% m/V", "value": 11.26, "unit": "%"}
    ]}
  ]
}
